Assay results from ChEMBL document CHEMBL4368940, “Development of a novel NURR1/NOT agonist from hit to lead and candidate for the potential treatment of Parkinson's disease” (Bioorg Med Chem Lett, 2019).
Each block holds one compound with its values, some of them ahead of it.

Experiments:
[1] = molecular target: Nuclear receptor subfamily 4 group A member 2 (Homo sapiens, UniProt P43354); test: Agonist activity at full-length Gal4-fused NOT (unknown origin) expressed in CHO cells by luciferase reporter gene assay; assay type: cell-based
[2] = molecular target: Nuclear receptor subfamily 4 group A member 2 (Mus musculus) (UniProt Q06219); test: (§1) Agonist activity at Nurr1 in mouse N2A cells harboring NBRE by luciferase reporter gene assay; assay type: cell-based
[3] = molecular target: Nuclear receptor subfamily 4 group A member 2 (Mus musculus, UniProt Q06219); test: as §1; assay type: cell-based
hERG = hERG (Homo sapiens, UniProt Q12809); test: Inhibition of human ERG at 10 uM
[4] = Drug level in mouse liver microsomes treated with N-phenyl-6-(pyridin-2-yl)imidazo[1,2-a]pyridine-2-carboxamide assessed as metabolite formation; assay type: ADME, Microsome
[5] = molecular target: Nuclear receptor subfamily 4 group A member 2 (Rattus norvegicus) (UniProt Q07917); test: Agonist activity at Nurr1 in rat mesencephalic primary neurons assessed as increase in tyrosine hydroxylase expression at 3 uM
[6] = molecular target: Nuclear receptor subfamily 4 group A member 2 (Mus musculus) (UniProt Q06219); test: Agonist activity at Nurr1 in mouse MG7 cells assessed as inhibition of LPS-induced IL1beta secretion at 3 uM; assay type: cell-based
[7] = Solubility of the compound by HPLC analysis; assay type: physicochemical
[8] = Stability in human plasma; assay type: ADME, cell-free
[9] = Stability in mouse plasma; assay type: ADME, cell-free
[10] = Lipophilicity, log D of the compound; assay type: physicochemical; settings: octanol/water
[11] = Dissociation constant, pKa of the compound; assay type: physicochemical
[12] = Apparent permeability in human Caco2 cells; assay type: ADME, cell-based; settings: caco-2
[13] = Drug metabolism in mouse liver microsomes; assay type: ADME, Microsome; settings: read-out: Drug metabolism
[14] = Drug metabolism in human liver microsomes; assay type: ADME, Microsome; settings: read-out: Drug metabolism
[15] = Clearance in human hepatocytes assessed per million cells; assay type: ADME, cell-based, Hepatocyte
Cytochrome P450 3A4 = Cytochrome P450 3A4 (Homo sapiens, UniProt P08684); test: Inhibition of CYP3A4 (unknown origin); assay type: ADME
Cytochrome P450 2D6 = Cytochrome P450 2D6 (Homo sapiens, UniProt P10635); test: Inhibition of CYP2D6 (unknown origin); assay type: ADME
Cytochrome P450 2C9 = Cytochrome P450 2C9 (Homo sapiens, UniProt P11712); test: Inhibition of CYP2C9 (unknown origin); assay type: ADME
CYP450 = CYP450 (Homo sapiens, UniProt P04798+P05177+P05181+P08684+P10632+P10635+P11509+P11712+P13584+P20813+P20815+P20853+P24462+P24903+P33260+P33261+P51589+P78329+P98187+Q02928+Q08477+Q16678+Q16696+Q5TCH4+Q6VVX0+Q7Z449+Q8TAV3+Q96SQ9+Q9HB55); test: Induction of CYP450 (unknown origin); assay type: ADME, protein assay
[16] = molecular target: Voltage-gated inwardly rectifying potassium channel KCNH2 (Homo sapiens, UniProt Q12809); test: Activation of human ERG
[17] = Genotoxicity in Salmonella typhimurium by Ames test; assay type: toxicity; settings: salmonella enterica subsp. enterica serovar typhimurium
[18] = Drug metabolism in human hepatocytes assessed as 3-(2-(4-chlorophenyl)imidazo[1,2-a]pyridin-6-yl)benzoic acid formation; assay type: ADME, cell-based, Hepatocyte
[19] = molecular target: Nuclear receptor subfamily 4 group A member 2 (Mus musculus) (UniProt Q06219); test: Agonist activity at Nurr1 in co-culture of mouse primary neurons and microglia assessed as inhibition of LPS-induced neurotoxicity by measuring neuroprotection at 3 uM; design: scale not given: the % may be the effect or the level left
[20] = molecular target: Nuclear receptor subfamily 4 group A member 2 (Mus musculus) (UniProt Q06219); test: Agonist activity at Nurr1 in co-culture of mouse primary neurons and microglia assessed as inhibition of LPS-induced neurotoxicity by measuring neuroprotection at 10 uM; design: scale not given: the % may be the effect or the level left

Nuclear receptor subfamily 4 group A member 2 (Homo sapiens, UniProt P43354), sequence (P43354 whole entry, the tested form may be a part): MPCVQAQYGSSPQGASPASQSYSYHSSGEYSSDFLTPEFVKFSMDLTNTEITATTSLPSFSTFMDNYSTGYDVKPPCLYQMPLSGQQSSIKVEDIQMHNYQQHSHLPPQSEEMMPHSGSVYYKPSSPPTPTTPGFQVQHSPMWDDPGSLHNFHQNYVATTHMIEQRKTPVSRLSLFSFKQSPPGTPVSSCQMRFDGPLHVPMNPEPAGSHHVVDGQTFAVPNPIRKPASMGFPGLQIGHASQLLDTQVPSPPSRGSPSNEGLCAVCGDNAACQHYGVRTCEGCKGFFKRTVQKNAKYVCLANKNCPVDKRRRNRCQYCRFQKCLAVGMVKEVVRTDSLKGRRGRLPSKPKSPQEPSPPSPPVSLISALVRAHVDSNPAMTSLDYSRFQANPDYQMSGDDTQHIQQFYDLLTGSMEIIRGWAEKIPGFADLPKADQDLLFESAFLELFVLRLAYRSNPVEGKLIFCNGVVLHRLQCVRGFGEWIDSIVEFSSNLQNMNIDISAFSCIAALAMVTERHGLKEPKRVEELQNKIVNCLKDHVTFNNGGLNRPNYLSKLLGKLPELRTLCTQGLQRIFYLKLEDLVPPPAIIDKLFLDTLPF
Nuclear receptor subfamily 4 group A member 2 (Mus musculus, UniProt Q06219), sequence (Q06219 whole entry): as the sequence (P43354 whole entry, the tested form may be a part) above, with T131S, G134S, E354D counted along it
Nuclear receptor subfamily 4 group A member 2 (Mus musculus), sequence (Q06219 whole entry): as the sequence (P43354 whole entry, the tested form may be a part) above, with T131S, G134S, E354D counted along it
Cytochrome P450 2D6, sequence (P10635 whole entry): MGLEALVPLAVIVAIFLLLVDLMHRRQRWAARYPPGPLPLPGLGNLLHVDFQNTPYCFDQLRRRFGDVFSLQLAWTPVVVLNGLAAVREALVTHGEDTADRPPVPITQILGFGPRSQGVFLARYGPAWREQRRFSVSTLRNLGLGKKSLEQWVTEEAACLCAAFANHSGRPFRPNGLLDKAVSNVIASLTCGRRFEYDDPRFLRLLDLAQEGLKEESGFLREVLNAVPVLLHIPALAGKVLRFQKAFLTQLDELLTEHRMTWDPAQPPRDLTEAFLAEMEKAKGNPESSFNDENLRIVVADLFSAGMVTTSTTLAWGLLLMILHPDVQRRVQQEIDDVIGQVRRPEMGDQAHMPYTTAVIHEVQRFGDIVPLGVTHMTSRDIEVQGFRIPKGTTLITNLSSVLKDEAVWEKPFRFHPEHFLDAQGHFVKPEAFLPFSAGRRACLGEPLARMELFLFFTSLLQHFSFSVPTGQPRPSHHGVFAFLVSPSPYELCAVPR
Cytochrome P450 2C9, sequence (P11712 whole entry): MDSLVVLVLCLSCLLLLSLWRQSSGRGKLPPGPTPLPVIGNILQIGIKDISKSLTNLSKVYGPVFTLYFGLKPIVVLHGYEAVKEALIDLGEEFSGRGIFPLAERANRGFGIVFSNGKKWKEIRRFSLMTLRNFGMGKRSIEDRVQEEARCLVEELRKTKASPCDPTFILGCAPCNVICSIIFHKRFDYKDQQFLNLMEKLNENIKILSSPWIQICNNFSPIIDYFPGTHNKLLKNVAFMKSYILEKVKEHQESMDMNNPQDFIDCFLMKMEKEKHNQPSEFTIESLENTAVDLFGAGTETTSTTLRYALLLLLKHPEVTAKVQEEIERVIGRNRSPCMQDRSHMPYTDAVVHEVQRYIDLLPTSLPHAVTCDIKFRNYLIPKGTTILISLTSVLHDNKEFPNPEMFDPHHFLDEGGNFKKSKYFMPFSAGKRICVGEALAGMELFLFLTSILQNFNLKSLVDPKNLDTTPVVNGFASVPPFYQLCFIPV
Nuclear receptor subfamily 4 group A member 2 (Rattus norvegicus), sequence (Q07917 whole entry): as the sequence (P43354 whole entry, the tested form may be a part) above, with T131S, P182R, E354D counted along it
Cytochrome P450 3A4, sequence (P08684 whole entry): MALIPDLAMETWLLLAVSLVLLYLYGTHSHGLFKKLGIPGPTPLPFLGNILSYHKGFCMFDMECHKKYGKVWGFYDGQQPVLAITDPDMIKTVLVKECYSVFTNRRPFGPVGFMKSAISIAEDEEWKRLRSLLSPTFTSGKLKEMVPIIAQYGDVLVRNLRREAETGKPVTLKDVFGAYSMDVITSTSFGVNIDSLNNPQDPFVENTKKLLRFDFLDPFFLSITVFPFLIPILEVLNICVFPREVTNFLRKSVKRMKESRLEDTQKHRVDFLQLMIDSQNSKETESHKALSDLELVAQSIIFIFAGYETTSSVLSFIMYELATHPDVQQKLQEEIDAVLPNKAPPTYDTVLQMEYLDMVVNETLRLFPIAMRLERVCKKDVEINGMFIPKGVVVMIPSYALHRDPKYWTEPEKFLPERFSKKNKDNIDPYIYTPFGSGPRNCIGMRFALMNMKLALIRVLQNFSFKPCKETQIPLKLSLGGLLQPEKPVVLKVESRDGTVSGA
Voltage-gated inwardly rectifying potassium channel KCNH2, sequence (Q12809 whole entry): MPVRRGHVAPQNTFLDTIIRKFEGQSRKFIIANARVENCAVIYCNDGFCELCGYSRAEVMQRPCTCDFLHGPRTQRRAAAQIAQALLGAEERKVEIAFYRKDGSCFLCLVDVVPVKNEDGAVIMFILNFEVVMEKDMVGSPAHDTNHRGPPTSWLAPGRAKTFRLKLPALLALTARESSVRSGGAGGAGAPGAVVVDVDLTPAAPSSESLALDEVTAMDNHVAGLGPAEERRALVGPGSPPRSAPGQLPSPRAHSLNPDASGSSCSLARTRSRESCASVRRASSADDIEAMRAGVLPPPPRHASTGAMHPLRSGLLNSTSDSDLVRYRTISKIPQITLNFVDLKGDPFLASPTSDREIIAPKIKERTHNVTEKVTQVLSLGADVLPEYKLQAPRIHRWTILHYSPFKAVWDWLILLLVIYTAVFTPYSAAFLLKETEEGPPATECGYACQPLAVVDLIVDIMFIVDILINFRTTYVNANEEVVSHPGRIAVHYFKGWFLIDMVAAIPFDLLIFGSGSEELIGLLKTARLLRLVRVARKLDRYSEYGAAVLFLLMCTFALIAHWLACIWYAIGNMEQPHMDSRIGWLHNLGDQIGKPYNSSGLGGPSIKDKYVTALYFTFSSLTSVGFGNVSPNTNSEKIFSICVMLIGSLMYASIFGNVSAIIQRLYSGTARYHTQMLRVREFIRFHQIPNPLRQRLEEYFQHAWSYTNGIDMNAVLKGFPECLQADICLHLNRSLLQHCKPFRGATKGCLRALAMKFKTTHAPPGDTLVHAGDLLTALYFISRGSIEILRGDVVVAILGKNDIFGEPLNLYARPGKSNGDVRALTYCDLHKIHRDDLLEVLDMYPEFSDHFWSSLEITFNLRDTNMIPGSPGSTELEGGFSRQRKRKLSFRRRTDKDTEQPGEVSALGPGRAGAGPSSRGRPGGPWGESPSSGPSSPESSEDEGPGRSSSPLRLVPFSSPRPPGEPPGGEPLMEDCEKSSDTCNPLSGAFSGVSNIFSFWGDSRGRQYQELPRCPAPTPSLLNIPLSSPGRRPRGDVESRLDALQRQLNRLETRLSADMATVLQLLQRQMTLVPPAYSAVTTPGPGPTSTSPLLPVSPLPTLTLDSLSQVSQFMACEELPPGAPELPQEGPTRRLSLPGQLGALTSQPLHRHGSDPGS
hERG, sequence (Q12809 whole entry): as above

Structure (SMILES): O=C(Nc1cc(F)ccc1F)c1cn2cc(-c3ccccn3)ccc2n1
Emax [2]: 68% | EC50 [3]: 1 nM | EC50 ([1]; read-out: EC50): > 1000 nM

Structure (SMILES): CC(O)(CO)c1cccc(-c2ccc3nc(-c4ccc(Cl)cc4)cn3c2)c1 (configuration not stated)
EC50 ([1]; read-out: EC50): > 1000 nM

Structure (SMILES): CN(C)Cc1cccc(-c2ccc3nc(-c4ccc(Cl)cc4)cn3c2)c1
EC50 ([1]; read-out: EC50): > 3000 nM

Structure (SMILES): CC(C)(O)c1c(F)ccc(-c2ccc3nc(-c4ccc(Cl)cc4)cn3c2)c1F
EC50 ([1]; read-out: EC50): > 1000 nM | inhibition at 10 µM (hERG): 70%

Structure (SMILES): Nc1ccccc1 [ANILINE]
Drug metabolism [4]: Metabolite_Detected

Structure (SMILES): CCCCCC(O)c1cccc(-c2ccc3nc(-c4ccc(Cl)cc4)cn3c2)c1 (configuration not stated)
EC50 ([1]; read-out: EC50): > 3000 nM

Structure (SMILES): O=C(Nc1ccccn1)c1cn2cc(-c3ccccn3)ccc2n1
Emax [2]: 87% | EC50 [3]: 2 nM | EC50 ([1]; read-out: EC50): > 1000 nM

Structure (SMILES): O=C(Nc1nncs1)c1cn2cc(-c3ccccn3)ccc2n1
Emax [2]: 70% | EC50 [3]: 67.6 nM | EC50 ([1]; read-out: EC50): > 1000 nM

Structure (SMILES): O=C(Nc1cnoc1)c1cn2cc(-c3ccccn3)ccc2n1
Emax [2]: 85% | EC50 [3]: 55 nM | EC50 ([1]; read-out: EC50): > 1000 nM

Structure (SMILES): O=C(Nc1cccc(F)c1F)c1cn2cc(-c3ccccn3)ccc2n1
Emax [2]: 64% | EC50 ([1]; read-out: EC50): > 1000 nM

Structure (SMILES): O=C(Nc1ccon1)c1cn2cc(-c3ccccn3)ccc2n1
Emax [2]: 62% | EC50 [3]: 20 nM | EC50 ([1]; read-out: EC50): > 1000 nM

Structure (SMILES): OC1(c2cccc(-c3ccc4nc(-c5ccc(Cl)cc5)cn4c3)c2)COC1
EC50 ([1]; read-out: EC50): 323 nM

Structure (SMILES): OCc1cccc(-c2ccc3nc(-c4ccc(Cl)cc4)cn3c2)c1
Emax [2]: 240% | EC50 [3]: 1 nM | Emax [1]: 239% | EC50 ([1]; read-out: EC50): 45 to 75 nM | Activity [5]: 188 to 313% | inhibition [6]: 58% | solubility [7]: < 1 µM | Stability [8]: Stable | Stability [9]: Stable | logD [10]: 2.95 | pKa [11]: 5.16 | permeability [12]: Permeable | metabolised [13]: 8% | metabolised [14]: 22% | CLH [15]: 0.42 mL/h | IC50 (Cytochrome P450 3A4): > 10 µM | IC50 (Cytochrome P450 2D6): > 10 µM | IC50 (Cytochrome P450 2C9): 8.6 µM | Emax (CYP450): < 20% | EC50 [16]: 900 nM | Activity [17]: Non-Toxic | Drug metabolism [18]: Metabolite_Detected | Activity [19]: 37% | Activity [20]: 65%

Structure (SMILES): CCCCCCC(O)c1cccc(-c2ccc3nc(-c4ccc(Cl)cc4)cn3c2)c1 (configuration not stated)
EC50 ([1]; read-out: EC50): > 3000 nM

Structure (SMILES): OCc1cc(-c2ccc3nc(-c4ccc(Cl)cc4)cn3c2)ccc1F
EC50 ([1]; read-out: EC50): > 1000 nM

Structure (SMILES): OCc1cccc(-c2cn3cc(-c4ccc(Cl)cc4)nc3cn2)c1
EC50 ([1]; cho): Not Active

Structure (SMILES): Clc1ccc(-c2cn3cc(-c4cccc(CN5CCCC5)c4)ccc3n2)cc1
EC50 ([1]; read-out: EC50): > 3000 nM

Structure (SMILES): COCc1cccc(-c2ccc3nc(-c4ccc(Cl)cc4)cn3c2)c1
EC50 ([1]; read-out: EC50): > 3000 nM

Further lines, results first:

EC50 ([1]; read-out: EC50): > 1000 nM
Structure (SMILES): CCC(O)c1cccc(-c2ccc3nc(-c4ccc(Cl)cc4)cn3c2)c1 (configuration not stated)

EC50 ([1]; cho): Not Active
Structure (SMILES): OCc1cccc(-c2ccc3nc(-c4ccc(Cl)cc4)cn3n2)c1

Emax [1]: 210%
Structure (SMILES): NC(=O)c1cccc(-c2ccc3nc(-c4ccc(Cl)cc4)cn3c2)c1

EC50 ([1]; read-out: EC50): > 1000 nM
Structure (SMILES): OC1(c2cccc(-c3ccc4nc(-c5ccc(Cl)cc5)cn4c3)c2)CCOCC1

Emax [2]: 103% | EC50 [3]: 1 nM | EC50 ([1]; read-out: EC50): > 1000 nM
Structure (SMILES): O=C(Nc1cccc(F)c1)c1cn2cc(-c3ccccn3)ccc2n1

Emax [2]: 68% | EC50 [3]: 26.5 nM | EC50 ([1]; read-out: EC50): > 1000 nM
Structure (SMILES): O=C(Nc1ccccc1Cl)c1cn2cc(-c3ccccn3)ccc2n1

Emax [2]: 52% | EC50 [3]: 292 nM | EC50 ([1]; read-out: EC50): > 1000 nM
Structure (SMILES): N#Cc1ccccc1NC(=O)c1cn2cc(-c3ccccn3)ccc2n1

EC50 ([1]; cho): Not Active
Structure (SMILES): OCc1cccc(-c2ccc3cc(-c4ccc(Cl)cc4)cn3c2)c1
